pKi: −log10 of the molar value.
Columns and labels:
[1] = target: D(3) dopamine receptor (Homo sapiens, UniProt P35462); experiment: Binding affinity against human Dopamine receptor D3 in Chinese hamster ovary cells using [3H]spiperone.; format: cell-based
[2] = target: D(2) dopamine receptor (Homo sapiens, UniProt P14416); experiment: Binding affinity against human Dopamine receptor D2 in mouse LtK- cells using [3H]spiperone.; format: cell-based
Chain of D(2) dopamine receptor (P14416 whole entry): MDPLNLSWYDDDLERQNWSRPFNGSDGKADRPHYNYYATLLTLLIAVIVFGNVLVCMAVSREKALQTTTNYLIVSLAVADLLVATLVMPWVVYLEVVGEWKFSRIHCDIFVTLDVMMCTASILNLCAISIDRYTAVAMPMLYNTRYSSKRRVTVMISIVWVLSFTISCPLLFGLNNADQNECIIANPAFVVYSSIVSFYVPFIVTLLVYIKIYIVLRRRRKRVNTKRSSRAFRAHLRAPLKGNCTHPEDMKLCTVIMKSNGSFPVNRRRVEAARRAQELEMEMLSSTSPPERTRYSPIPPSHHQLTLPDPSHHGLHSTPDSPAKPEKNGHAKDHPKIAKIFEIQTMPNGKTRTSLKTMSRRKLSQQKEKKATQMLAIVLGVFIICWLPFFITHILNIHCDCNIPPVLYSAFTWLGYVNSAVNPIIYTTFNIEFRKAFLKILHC

Chain of D(3) dopamine receptor (P35462 whole entry): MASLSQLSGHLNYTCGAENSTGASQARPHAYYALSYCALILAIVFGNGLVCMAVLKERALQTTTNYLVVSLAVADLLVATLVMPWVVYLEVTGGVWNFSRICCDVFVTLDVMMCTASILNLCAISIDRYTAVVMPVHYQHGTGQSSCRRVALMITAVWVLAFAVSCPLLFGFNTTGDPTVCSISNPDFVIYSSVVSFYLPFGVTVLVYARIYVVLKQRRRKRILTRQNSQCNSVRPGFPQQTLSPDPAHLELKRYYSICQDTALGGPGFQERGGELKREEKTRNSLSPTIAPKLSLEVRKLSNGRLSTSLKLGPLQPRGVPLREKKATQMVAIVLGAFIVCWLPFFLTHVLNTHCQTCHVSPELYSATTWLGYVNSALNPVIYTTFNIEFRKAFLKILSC

Row | Structure (SMILES) | pKi [1] | pKi [2]
1 | CCCN(CCC)C1CCc2cc(CCc3ccc(C(=O)OCC)cc3)ccc2C1 (stereo not given) | 8.70 | 6.60
2 | CCCN(CCC)C1CCc2cc(CCc3ccc(O)cc3)ccc2C1 (stereo not given) | 7.90 | 6.50
3 | CCCN(CCC)C1CCc2cc(CCc3ccccc3)ccc2C1 (stereo not given) | 8.40 | 6.40
4 | CCCN(CCC)[C@@H]1CCc2c(ccc(C(O)Cc3ccc(Cl)cc3)c2OC)[C@@H]1C (stereo not given in full) | 7.60 | 6.20
5 | CCCN(CCC)[C@H]1CCc2cc(CCc3ccc(Cl)cc3)ccc2C1 | 8.00 | 6.90
6 | CCCN(CCC)[C@@H]1CCc2cc(CCc3ccc(Cl)cc3)ccc2C1 | 8.40 | 6.40
7 | CCCN(CCC)[C@@H]1CCc2c(ccc(C(O)Cc3ccc(OC)cc3)c2OC)C1 (stereo not given in full) | 7.30 | 
8 | CCCN(CCC)[C@@H]1CCc2cc(CCc3ccc(C(C)=O)cc3)ccc2C1 | 8.50 | 6.10
9 | CCCN(CCC)C1CCc2cc(CCc3ccc(C(C)=O)cc3)ccc2C1 (stereo not given) | 8.40 | 6.00
10 | CCCN(CCC)[C@@H]1CCc2c(OC)cccc2[C@@H]1C | 7.90 | 7.20
11 | CCCN(CCC)C1CCc2cc(CCc3ccc(C(=O)O)cc3)ccc2C1 (stereo not given) | 5.50 | 
12 | CCCN(CCC)C1CCc2cc(CN(C(N)=O)c3ccc(OC)cc3)ccc2C1 (stereo not given) | 7.60 | 5.20
13 | CCCN(CCC)[C@@H]1CCc2c(ccc(CCc3ccc(C(F)(F)F)cc3)c2OC)C1 | 8.20 | 7.00
14 | CCCN(CCC)C1CCc2cc(CCc3ccc(OC)cc3)ccc2C1 (stereo not given) | 8.50 | 6.60
15 | CCCN(CCC)[C@@H]1CCc2c(ccc(C(O)Cc3ccc(Cl)cc3)c2OC)C1 (single isomer, unassigned; isomer I) | 8.20 | 6.50
16 | CCCN(CCC)[C@@H]1CCc2c(ccc(C(O)Cc3ccc(Cl)cc3)c2OC)C1 (stereo in doubt) | 7.30 | 5.90

The next lines start with the values.

Row | pKi [1] | pKi [2] | Structure (SMILES)
17 | 7.70 |  | CCCN(CCC)[C@@H]1CCc2c(ccc(C(O)Cc3ccc(Cl)c(Cl)c3)c2OC)C1 (stereo not given in full)
18 | 8.70 | 6.10 | CCCN(CCC)C1CCc2cc(CCc3ccc(/C(C)=N\O)cc3)ccc2C1 (stereo not given)
19 | 6.20 |  | CCCN(CCC)C1CCc2cc(CCc3ccc(C(N)=O)cc3)ccc2C1 (stereo not given)
20 | 7.20 | 6.00 | CCCN(CCC)[C@@H]1CCc2c(ccc(C(O)Cc3ccccc3)c2OC)C1 (stereo not given in full)
21 | 9.80 | 6.70 | CCCN(CCC)[C@@H]1CCc2cc(CS(=O)(=O)c3ccc(I)cc3)ccc2C1
22 | 6.30 |  | CCCN(CCC)[C@@H]1CCc2c(ccc(CCc3ccc(NS(C)(=O)=O)cc3)c2OC)C1
23 | 8.90 | 6.70 | CCCN(CCC)C1CCc2cc(CSc3ccc(OC)cc3)ccc2C1 (stereo not given)
24 | 8.90 | 6.30 | CCCN(CCC)[C@@H]1CCc2cc(CS(=O)(=O)c3ccc(OC)cc3)ccc2C1
25 | 8.30 | 6.90 | CCCN(CCC)[C@@H]1CCc2c(ccc(CCc3ccc(Cl)cc3)c2OC)C1
26 | 7.70 |  | CCCN(CCC)[C@@H]1CCc2c(ccc(CCc3ccccc3)c2OC)C1
27 | 8.20 | 6.10 | CCCN(CCC)C1CCc2cc(CN(C(=O)OC)c3ccc(OC)cc3)ccc2C1 (stereo not given)
28 | 5.80 |  | CCCN(CCC)C1CCc2cc(CCc3ccc(S(C)(=O)=O)cc3)ccc2C1 (stereo not given)
29 | 8.80 | 6.20 | CCCN(CCC)C1CCc2cc(CS(=O)(=O)c3ccc(OC)cc3)ccc2C1 (stereo not given)
30 | 9.00 | 6.50 | CCCN(CCC)[C@@H]1CCc2cc(CCc3ccc(/C(C)=N\O)cc3)ccc2C1
31 | 8.10 | 6.20 | CCCN(CCC)C1CCc2cc(CN(C(C)=O)c3ccc(OC)cc3)ccc2C1 (stereo not given)

Reference: ChEMBL document CHEMBL1129777, “Novel 6-substituted 2-aminotetralins with potent and selective affinity for the dopamine D3 receptor” (Bioorg Med Chem Lett, 1996)
